Data as given in US7045544B2, “Substituted 2,5-diamidoindoles as ECE inhibitors for the treatment of cardiovascular diseases” (Bayer HealthCare AG, priority 2001, dated 2006).
Structures can show the parent of a compound that is named as a salt.

What follows are compounds tested against T1, endothelin-converting enzyme (ECE) (Homo sapiens, UniProt P42892) (assay: cell-based). Settings: ECE activity of endothelial cell line EA.hy926; 1–100 nM bET; 100 μM thiophane added; ET-1 formed measured by EIA.
T1 construct: The ECE activity for identifying the substances described herein originates from the endothelial cell line EA.hy926; endogenous in cells; host or cells: EA.hy926 endothelial cells (intact, confluent)
T1 sequence (P42892 1-770): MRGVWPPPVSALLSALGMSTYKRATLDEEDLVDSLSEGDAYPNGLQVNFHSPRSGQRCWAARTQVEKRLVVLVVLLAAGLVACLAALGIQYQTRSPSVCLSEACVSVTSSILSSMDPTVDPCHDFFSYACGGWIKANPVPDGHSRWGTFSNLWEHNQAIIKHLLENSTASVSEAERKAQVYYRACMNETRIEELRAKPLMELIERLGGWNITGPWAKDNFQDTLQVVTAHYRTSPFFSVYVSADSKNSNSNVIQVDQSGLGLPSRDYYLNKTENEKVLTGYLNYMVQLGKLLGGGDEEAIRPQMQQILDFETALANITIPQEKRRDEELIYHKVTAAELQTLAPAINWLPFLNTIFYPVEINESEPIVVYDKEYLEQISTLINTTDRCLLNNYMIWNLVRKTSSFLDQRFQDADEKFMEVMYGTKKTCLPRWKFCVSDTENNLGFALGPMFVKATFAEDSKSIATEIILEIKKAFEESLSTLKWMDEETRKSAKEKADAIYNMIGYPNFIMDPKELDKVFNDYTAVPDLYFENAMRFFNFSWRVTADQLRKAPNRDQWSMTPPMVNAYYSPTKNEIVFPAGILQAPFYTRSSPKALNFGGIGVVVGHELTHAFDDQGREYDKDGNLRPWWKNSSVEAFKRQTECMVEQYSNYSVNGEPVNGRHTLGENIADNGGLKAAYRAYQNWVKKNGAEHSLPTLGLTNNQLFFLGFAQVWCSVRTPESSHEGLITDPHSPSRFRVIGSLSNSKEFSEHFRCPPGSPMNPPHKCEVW
Method: Functional in Vitro Assay
The ECE activity for identifying the substances described herein originates from the endothelial cell line EA.hy926. The ECE-inhibitory action of the compounds in this invention is tested as described below:
For 12–48 h, EA.hy296 cells are cultivated in a 384-well cell culture dish in 80 μl of cell culture medium (DMEM supplemented with 10% FCS, 2 mM glutamine, 10 mM HEPES, 1 mM sodium pyruvate and 1×HAT (Gibco 21060-017)) in a humid atmosphere (100% atmospheric humidity) enriched with 7% v/v of CO2 at 37° C. After confluence has been reached, and immediately prior to the actual beginning of measurement, the supernatant of the cell culture is pipetted off and replaced by 40 or 80 μl of the same medium to which 1–100 nM bET has been added. After 30–120 minutes under otherwise identical cell culture conditions, the supernatant is pipetted off. Cellular components are removed by centrifugation in a customary bench-top centrifuge (10 000 rpm; 2 minutes). The resulting clear supernatant is either used directly as described below or shock-frozen in dry ice and then stored at −20° C. Directly removed supernatant or thawed, stored supernatant are measured in an enzyme immunoassay (EIA).
To determine the inhibitory activity of ECE inhibitors, EA.hy296 cells are incubated with the test substance in a concentration between 0.001–5 μM under the conditions described above. To minimize possible interference by neutral endopeptidase (NEP24.11), 100 μM of thiophane are added during the bET incubation of the EA.hy926 cells.
The proportion of the ET-1 formed by ECE cleavage is measured as follows: depending on the amount of converted bET, the samples are, prior to use, diluted 2–100-fold with EIA. An appropriate dilution of the cell supernatant is incubated in 100 μl portions for 14–18 hours in the sample tubes of the EIA kit Biomedica B1-20052.
With `CC(=O)Nc1ccc(NC(=O)c2cc3cc(NC(=O)CC(C)(C)C)ccc3n2Cc2ccccc2F)cc1` [Example 60] the IC50 was 700 nM.
`CC(C)(C)CC(=O)Nc1ccc2c(c1)cc(C(=O)Nc1ccc(N)cc1)n2Cc1ccccc1F` [Example 57, N-(4-Aminophenyl)-5-[(3,3-dimethylbutanoyl)amino]-1-(2-fluorobenzyl)-1H-indole-2-carboxamide hydrochloride] was tested, and the IC50 was 1500 nM.
`CC(C)(C)CC(=O)Nc1ccc2c(c1)cc(C(=O)Nc1ccc(NS(C)(=O)=O)cc1)n2Cc1ccccc1F` [Example 58] showed an IC50 of 1600 nM.
